Reference: patent publication US9963445B2, “Chemical compounds” (SYNGENTA PARTICIPATIONS AG, priority 2013, dated 2018)

tested on: Abutilon theophrasti; test: Pre-emergence herbicidal activity, glasshouse pot test; format: in vivo; settings: pre-emergence spray, rate 1000 g/ha, evaluated after 13 days, scale 0-5
Experimental: (§1) Seeds of a variety of test species were sown in standard soil in pots. After cultivation for one day (pre-emergence) under controlled conditions in a glasshouse (at 24/16° C., day/night; 14 hours light; 65% humidity), the plants were sprayed with an aqueous spray solution derived from the formulation of the technical active ingredient in acetone/water (50:50) solution containing 0.5% Tween 20 (polyoxyethelyene sorbitan monolaurate, CAS RN 9005-64-5). The test plants were then grown in a glasshouse under controlled conditions (at 24/16° C., day/night; 14 hours light; 65% humidity) and watered twice daily. After 13 days, the test was evaluated (5=total damage to plant; 0=no damage to plant).
(§2) ABUTH=Abutilon theophrasti; SOLNI=Solanum nigrum; AMARE=Amaranthus retroflexus; SETFA=Setaria faberi; ALOMY=Alopecurus myosuroides; ECHCG=Echinochloa crus-galli, ZEAMX=zea mays.

Molecule | ABUTH damage score, application pre-emergence
1-(6-chloropyrimidin-4-yl)-2-hydroxy-4-methoxy-3-methyl-2H-pyrrol-5-one [CI2] | 1
4-chloro-2-hydroxy-1-[5-iodo-4-(trifluoromethyl)-2-pyridyl]-3-methyl-2H-pyrrol-5-one [AF76] | 4
4-chloro-2-hydroxy-3-methyl-1-[4-(trifluoromethyl)-5-vinyl-2-pyridyl]-2H-pyrrol-5-one [AF18] | 5
CC1=C(Cl)C(=O)N(c2cc(C(F)(F)F)c(Br)cn2)C1O (stereo not shown) [AF57, 1-[5-bromo-4-(trifluoromethyl)-2-pyridyl]-4-chloro-2-hydroxy-3-methyl-2H-pyrrol-5-one] | 1

tested on: Alopecurus myosuroides; test: as above; format: in vivo; settings: pre-emergence spray, rate 1000 g/ha, evaluated after 13 days, scale 0-5
Experimental: as §1, §2

Molecule | ALOMY damage score, application pre-emergence
1-(6-chloropyrimidin-4-yl)-2-hydroxy-4-methoxy-3-methyl-2H-pyrrol-5-one [CI2] | 2
4-chloro-2-hydroxy-1-[5-iodo-4-(trifluoromethyl)-2-pyridyl]-3-methyl-2H-pyrrol-5-one [AF76] | 3
4-chloro-2-hydroxy-3-methyl-1-[4-(trifluoromethyl)-5-vinyl-2-pyridyl]-2H-pyrrol-5-one [AF18] | 4
CC1=C(Cl)C(=O)N(c2cc(C(F)(F)F)c(Br)cn2)C1O (stereo not shown) [AF57, 1-[5-bromo-4-(trifluoromethyl)-2-pyridyl]-4-chloro-2-hydroxy-3-methyl-2H-pyrrol-5-one] | 3

tested on: zea mays; test: as above; format: in vivo; settings: pre-emergence spray, rate 1000 g/ha, evaluated after 13 days, scale 0-5
Experimental: as §1, §2

Molecule | ZEAMX damage score, application pre-emergence
1-(6-chloropyrimidin-4-yl)-2-hydroxy-4-methoxy-3-methyl-2H-pyrrol-5-one [CI2] | 1
4-chloro-2-hydroxy-1-[5-iodo-4-(trifluoromethyl)-2-pyridyl]-3-methyl-2H-pyrrol-5-one [AF76] | 1
4-chloro-2-hydroxy-3-methyl-1-[4-(trifluoromethyl)-5-vinyl-2-pyridyl]-2H-pyrrol-5-one [AF18] | 2
CC1=C(Cl)C(=O)N(c2cc(C(F)(F)F)c(Br)cn2)C1O (stereo not shown) [AF57, 1-[5-bromo-4-(trifluoromethyl)-2-pyridyl]-4-chloro-2-hydroxy-3-methyl-2H-pyrrol-5-one] | 0

tested on: Amaranthus retroflexus; test: as above; format: in vivo; settings: pre-emergence spray, rate 1000 g/ha, evaluated after 13 days, scale 0-5
Experimental: as §1, §2

Molecule | AMARE damage score, application pre-emergence
4-chloro-2-hydroxy-1-[5-iodo-4-(trifluoromethyl)-2-pyridyl]-3-methyl-2H-pyrrol-5-one [AF76] | 5
4-chloro-2-hydroxy-3-methyl-1-[4-(trifluoromethyl)-5-vinyl-2-pyridyl]-2H-pyrrol-5-one [AF18] | 5

tested on: Echinochloa crus-galli; test: as above; format: in vivo; settings: pre-emergence spray, rate 1000 g/ha, evaluated after 13 days, scale 0-5
Experimental: as §1, §2

Molecule | ECHCG damage score, application pre-emergence
1-(6-chloropyrimidin-4-yl)-2-hydroxy-4-methoxy-3-methyl-2H-pyrrol-5-one [CI2] | 4
4-chloro-2-hydroxy-1-[5-iodo-4-(trifluoromethyl)-2-pyridyl]-3-methyl-2H-pyrrol-5-one [AF76] | 4
4-chloro-2-hydroxy-3-methyl-1-[4-(trifluoromethyl)-5-vinyl-2-pyridyl]-2H-pyrrol-5-one [AF18] | 5
CC1=C(Cl)C(=O)N(c2cc(C(F)(F)F)c(Br)cn2)C1O (stereo not shown) [AF57, 1-[5-bromo-4-(trifluoromethyl)-2-pyridyl]-4-chloro-2-hydroxy-3-methyl-2H-pyrrol-5-one] | 0

tested on: Setaria faberi; test: as above; format: in vivo; settings: pre-emergence spray, rate 1000 g/ha, evaluated after 13 days, scale 0-5
Experimental: as §1, §2

Molecule | SETFA damage score, application pre-emergence
1-(6-chloropyrimidin-4-yl)-2-hydroxy-4-methoxy-3-methyl-2H-pyrrol-5-one [CI2] | 4
4-chloro-2-hydroxy-1-[5-iodo-4-(trifluoromethyl)-2-pyridyl]-3-methyl-2H-pyrrol-5-one [AF76] | 5
4-chloro-2-hydroxy-3-methyl-1-[4-(trifluoromethyl)-5-vinyl-2-pyridyl]-2H-pyrrol-5-one [AF18] | 4
CC1=C(Cl)C(=O)N(c2cc(C(F)(F)F)c(Br)cn2)C1O (stereo not shown) [AF57, 1-[5-bromo-4-(trifluoromethyl)-2-pyridyl]-4-chloro-2-hydroxy-3-methyl-2H-pyrrol-5-one] | 0

tested on: Abutilon theophrasti; test: Post-emergence herbicidal activity, glasshouse pot test; format: in vivo; design: key: 0 = no damage to plant, 5 = total damage to plant; settings: Application post-emergence, rate 1000 g/ha, evaluated after 13 days
Experimental: (§3) Seeds of a variety of test species were sown in standard soil in pots. After 8 days cultivation (post-emergence) under controlled conditions in a glasshouse (at 24/16° C., day/night; 14 hours light; 65% humidity), the plants were sprayed with an aqueous spray solution derived from the formulation of the technical active ingredient in acetone/water (50:50) solution containing 0.5% Tween 20 (polyoxyethelyene sorbitan monolaurate, CAS RN 9005-64-5). The test plants were then grown in a glasshouse under controlled conditions (at 24/16° C., day/night; 14 hours light; 65% humidity) and watered twice daily. After 13 days, the test was evaluated (5=total damage to plant; 0=no damage to plant).
as §2

Molecule | ABUTH herbicidal damage score
4-chloro-2-hydroxy-1-[5-iodo-4-(trifluoromethyl)-2-pyridyl]-3-methyl-2H-pyrrol-5-one [AF76] | 5
4-chloro-2-hydroxy-3-methyl-1-[4-(trifluoromethyl)-5-vinyl-2-pyridyl]-2H-pyrrol-5-one [AF18] | 5
CC1=C(Cl)C(=O)N(c2cc(C(F)(F)F)c(Br)cn2)C1O (stereo not shown) [AF57, 1-[5-bromo-4-(trifluoromethyl)-2-pyridyl]-4-chloro-2-hydroxy-3-methyl-2H-pyrrol-5-one] | 5

tested on: Alopecurus myosuroides; test: as above; format: in vivo; design: key: 0 = no damage to plant, 5 = total damage to plant; settings: Application post-emergence, rate 1000 g/ha, evaluated after 13 days
Experimental: as §3, §2

Molecule | ALOMY herbicidal damage score
4-chloro-2-hydroxy-1-[5-iodo-4-(trifluoromethyl)-2-pyridyl]-3-methyl-2H-pyrrol-5-one [AF76] | 5
4-chloro-2-hydroxy-3-methyl-1-[4-(trifluoromethyl)-5-vinyl-2-pyridyl]-2H-pyrrol-5-one [AF18] | 5
CC1=C(Cl)C(=O)N(c2cc(C(F)(F)F)c(Br)cn2)C1O (stereo not shown) [AF57, 1-[5-bromo-4-(trifluoromethyl)-2-pyridyl]-4-chloro-2-hydroxy-3-methyl-2H-pyrrol-5-one] | 5

tested on: zea mays; test: as above; format: in vivo; design: key: 0 = no damage to plant, 5 = total damage to plant; settings: Application post-emergence, rate 1000 g/ha, evaluated after 13 days
Experimental: as §3, §2

Molecule | ZEAMX herbicidal damage score
4-chloro-2-hydroxy-1-[5-iodo-4-(trifluoromethyl)-2-pyridyl]-3-methyl-2H-pyrrol-5-one [AF76] | 1
4-chloro-2-hydroxy-3-methyl-1-[4-(trifluoromethyl)-5-vinyl-2-pyridyl]-2H-pyrrol-5-one [AF18] | 2
CC1=C(Cl)C(=O)N(c2cc(C(F)(F)F)c(Br)cn2)C1O (stereo not shown) [AF57, 1-[5-bromo-4-(trifluoromethyl)-2-pyridyl]-4-chloro-2-hydroxy-3-methyl-2H-pyrrol-5-one] | 3

tested on: Amaranthus retroflexus; test: as above; format: in vivo; design: key: 0 = no damage to plant, 5 = total damage to plant; settings: Application post-emergence, rate 1000 g/ha, evaluated after 13 days
Experimental: as §3, §2

Molecule | AMARE herbicidal damage score
4-chloro-2-hydroxy-1-[5-iodo-4-(trifluoromethyl)-2-pyridyl]-3-methyl-2H-pyrrol-5-one [AF76] | 5
4-chloro-2-hydroxy-3-methyl-1-[4-(trifluoromethyl)-5-vinyl-2-pyridyl]-2H-pyrrol-5-one [AF18] | 5
CC1=C(Cl)C(=O)N(c2cc(C(F)(F)F)c(Br)cn2)C1O (stereo not shown) [AF57, 1-[5-bromo-4-(trifluoromethyl)-2-pyridyl]-4-chloro-2-hydroxy-3-methyl-2H-pyrrol-5-one] | 5

tested on: Echinochloa crus-galli; test: as above; format: in vivo; design: key: 0 = no damage to plant, 5 = total damage to plant; settings: Application post-emergence, rate 1000 g/ha, evaluated after 13 days
Experimental: as §3, §2

Molecule | ECHCG herbicidal damage score
4-chloro-2-hydroxy-1-[5-iodo-4-(trifluoromethyl)-2-pyridyl]-3-methyl-2H-pyrrol-5-one [AF76] | 5
4-chloro-2-hydroxy-3-methyl-1-[4-(trifluoromethyl)-5-vinyl-2-pyridyl]-2H-pyrrol-5-one [AF18] | 5
CC1=C(Cl)C(=O)N(c2cc(C(F)(F)F)c(Br)cn2)C1O (stereo not shown) [AF57, 1-[5-bromo-4-(trifluoromethyl)-2-pyridyl]-4-chloro-2-hydroxy-3-methyl-2H-pyrrol-5-one] | 5

tested on: Setaria faberi; test: as above; format: in vivo; design: key: 0 = no damage to plant, 5 = total damage to plant; settings: Application post-emergence, rate 1000 g/ha, evaluated after 13 days
Experimental: as §3, §2

Molecule | SETFA herbicidal damage score
4-chloro-2-hydroxy-1-[5-iodo-4-(trifluoromethyl)-2-pyridyl]-3-methyl-2H-pyrrol-5-one [AF76] | 5
4-chloro-2-hydroxy-3-methyl-1-[4-(trifluoromethyl)-5-vinyl-2-pyridyl]-2H-pyrrol-5-one [AF18] | 5
CC1=C(Cl)C(=O)N(c2cc(C(F)(F)F)c(Br)cn2)C1O (stereo not shown) [AF57, 1-[5-bromo-4-(trifluoromethyl)-2-pyridyl]-4-chloro-2-hydroxy-3-methyl-2H-pyrrol-5-one] | 5
